Results on 56 molecules are retold here after the Kinase Knowledgebase extract (Sharma et al. 2016).

One may read the IC50 as the concentration needed to halve the response being measured. Higher therefore signals weaker potency in that assay.

Molecules are shown by their SMILES.

This assay deals with PIK3CB;PIK3CG;PIK3CD;PIK3CA (human) (UniProt P48736). Description: Enzyme Assay.
Turning to `Cc1noc(-c2ccc3nc(-n4cccn4)nc(N4CCOCC4)c3n2)n1`, the IC50 is 0.5 µM. Next, `COC(=O)c1cc(N2CCOCC2)c2nc(-n3ccnc3)nc(N3CCOCC3)c2n1`: 0.67 µM; `COC(=O)c1cc(SC)c2nc(-c3ccccc3)nc(N3CCOCC3)c2n1`: 2.84 µM. Next, `OCc1ccc2nc(-n3ccnc3)nc(N3CCOCC3)c2n1`: 3.99 µM; `COCc1ccc2nc(-n3ccnc3)nc(N3CCOCC3)c2n1`: 0.83 µM; `Cc1noc(-c2cc(Cl)c3nc(-n4ccnc4)nc(N4CCOCC4)c3n2)n1`: 3.29 µM.

Molecule `Cc1noc(-c2cc(N(C)C)c3nc(-n4cccn4)nc(N4CCOCC4)c3n2)n1` displayed an IC50 of 0.48 µM.

Take `COCc1cc(N(C)C)c2nc(-n3ccnc3)nc(N3CCOCC3)c2n1`: the IC50 worked out at 1.16 µM.

In the case of `COCc1noc(-c2ccc3nc(-n4cccn4)nc(N4CCOCC4)c3n2)n1`, the IC50 came to 0.83 µM.

Turning to `COC(=O)c1cc(-n2cccc2)c2nc(-n3cccc3)nc(N3CCOCC3)c2n1`, the IC50 was 8.06 µM. Next, `CSc1cc(-c2nc(C)no2)nc2c(N3CCOCC3)nc(-n3ccnc3)nc12`: 3.53 µM; `CSc1cc(CO)nc2c(N3CCOCC3)nc(-c3ccsc3)nc12`: 3.88 µM; `COCc1cc(CN2CCOCC2)c2nc(-n3ccnc3)nc(N3CCOCC3)c2n1`: 8.45 µM. The figure for `COC(=O)c1cc(SC)c2nc(Cl)nc(N3CCOCC3)c2n1` is 3.53 µM; for `COC(=O)c1cc(SC)c2nc(-c3ccsc3)nc(N3CCOCC3)c2n1` it is 1.83 µM; for `COC(=O)c1cc(SC)c2nc(-c3ccc(OC)cc3)nc(N3CCOCC3)c2n1` it is 11.4 µM. Next, `COC(=O)c1cc(N2CCN(C)CC2)c2nc(-n3ccnc3)nc(N3CCOCC3)c2n1`: 1.01 µM; `CSc1cc(C(=O)N(C)C)nc2c(N3CCOCC3)nc(-c3cccc(CO)c3)nc12`: 0.14 µM; `CSc1cc(-c2nnc(C)o2)nc2c(N3CCOCC3)nc(-n3ccnc3)nc12`: 0.32 µM. `OCc1cc(N2CCOCC2)c2nc(-n3ccnc3)nc(N3CCOCC3)c2n1` came in with a 50% inhibitory concentration (IC50) of 2.98 µM.

For the molecule `COC(=O)c1cc(N(C)C)c2nc(-n3ccnc3)nc(N3CCOCC3)c2n1`, the IC50 was 0.42 µM. The figure for `Cc1ccc2nc(-c3ccccc3)nc(N3CCOCC3)c2n1` is 1.84 µM. The figure for `COC(=O)c1cc(Cl)c2nc(Cl)nc(N3CCOCC3)c2n1` is 12.4 µM; for `COCc1noc(-c2ccc3nc(-n4ccnc4)nc(N4CCOCC4)c3n2)n1` it is 0.64 µM.

The molecule `CN(C)Cc1ccc2nc(-n3ccnc3)nc(N3CCOCC3)c2n1` displayed an IC50 of 3.2 µM. In turn, `c1cnc2c(N3CCOCC3)nc(-n3ccnc3)nc2c1` showed an IC50 of 5.28 µM. The figure for `COCc1cc(SC)c2nc(-n3ccnc3)nc(N3CCOCC3)c2n1` is 2.31 µM; for `COCCN(C)c1cc(C(=O)OC)nc2c(N3CCOCC3)nc(-n3ccnc3)nc12` it is 1.42 µM.

For `CN(C)CCNC(=O)c1cc(NCCN(C)C)c2nc(-n3ccnc3)nc(N3CCOCC3)c2n1`, the IC50 stood at 1.76 µM. The figure for `CN(C)CCNCc1ccc2nc(-n3ccnc3)nc(N3CCOCC3)c2n1` is 1.89 µM.

`CNC(=O)c1ccc2nc(-n3ccnc3)nc(N3CCOCC3)c2n1` yielded an IC50 of 1.1 µM. Molecule `NC(=O)c1ccc2nc(-n3ccnc3)nc(N3CCOCC3)c2n1` returned an IC50 of 1.83 µM. This IC50 is about 1.7-fold higher than that of the molecule before. Next, `CN(C)C(=O)c1ccc2nc(-n3ccnc3)nc(N3CCOCC3)c2n1`: 2.97 µM; `COC(=O)c1cc(SC)c2nc(C)nc(N3CCOCC3)c2n1`: 6.86 µM; `COC(=O)c1cc(SC)c2nc(-c3ccncc3)nc(N3CCOCC3)c2n1`: 5.72 µM.

Take `CSc1cc(-c2nc(C)no2)nc2c(N3CCOCC3)nc(-n3cccn3)nc12`: the IC50 worked out at 0.22 µM. Next, `COC(=O)c1ccc2nc(-n3ccnc3)nc(N3CCOCC3)c2n1`: 0.73 µM; `COC(=O)c1cc(SC)c2nc(-n3ccnc3)nc(N3CCOCC3)c2n1`: 0.35 µM.

As for `Cc1noc(-c2cc(N(C)C)c3nc(-n4ccnc4)nc(N4CCOCC4)c3n2)n1`, the IC50 amounted to 0.59 µM.

For `COCCNc1cc(C(=O)OC)nc2c(N3CCOCC3)nc(-n3ccnc3)nc12`, the IC50 was 1.29 µM. The figure for `COC(=O)c1cc(S(C)(=O)=O)c2nc(-n3ccnc3)nc(N3CCOCC3)c2n1` is 0.57 µM.

Consider `COC(=O)c1cc(SC)c2nc(-c3cccc4[nH]ccc34)nc(N3CCOCC3)c2n1`, for which the IC50 is 1.27 µM. The molecule `COC(=O)c1cc(S(C)(=O)=O)c2nc(Cl)nc(N3CCOCC3)c2n1` displayed an IC50 of 2.31 µM. Compared with the last molecule, the IC50 is about 1.8-fold higher. The figure for `COC(=O)c1cc(SC)c2nc(-c3cnn(C)c3)nc(N3CCOCC3)c2n1` is 1.21 µM; for `COCCN(C)c1cc(-c2nc(C)no2)nc2c(N3CCOCC3)nc(-n3cccn3)nc12` it is 2.51 µM; for `CSCc1ccc2nc(-n3ccnc3)nc(N3CCOCC3)c2n1` it is 3.76 µM. The figure for `COC(=O)c1cc(Cl)c2nc(-n3ccnc3)nc(N3CCOCC3)c2n1` is 0.81 µM; for `Cc1ccc2nc(-n3ccnc3)nc(N3CCOCC3)c2n1` it is 0.95 µM; for `COC(=O)c1ccc2nc(-c3ccccc3)nc(N3CCOCC3)c2n1` it is 0.43 µM. As to `Cc1nnc(-c2cc(N(C)C)c3nc(-n4ccnc4)nc(N4CCOCC4)c3n2)o1`, the IC50 was determined as 0.23 µM. In turn, `CSc1cc(C(=O)N(C)C)nc2c(N3CCOCC3)nc(-c3cccc4[nH]ncc34)nc12` yielded a concentration for half-maximal inhibition (IC50) of 0.86 µM. The figure for `COC(=O)c1cc(Cl)c2nc(-n3cccn3)nc(N3CCOCC3)c2n1` is 1.65 µM.

As for `Cc1ccc2nc(Cl)nc(N3CCOCC3)c2n1`, the IC50 is 8.61 µM.

Turning to `COC(=O)c1cc(SC)c2nc(-c3cn[nH]c3)nc(N3CCOCC3)c2n1`, the IC50 was determined as 1.27 µM. Next, `Cc1noc(-c2ccc3nc(-n4ccnc4)nc(N4CCOCC4)c3n2)n1`: 0.8 µM; `COCCN(C)c1cc(-c2nnc(C)o2)nc2c(N3CCOCC3)nc(-n3ccnc3)nc12`: 0.42 µM.
